Earlier results in patent publication US5252560A, “Cyclic imide derivatives, compositions and use” (Glaxo Inc., priority 1991, dated 1993).

Test system: arthritis in a collagen-induced model
Conditions: large doses; collagen-induced model in the mouse

In the case of “TIMP: the natural inhibitor of collagenase”, the severity of arthritis is given as “decreases the severity of arthritis”.
